Measured values: patent US20260191968A1, “PROTAC DEGRADERS OF MLLT1 AND/OR MLLT3” (DARK BLUE THERAPEUTICS LTD, priority 2024, published 2026)

Key:
human AML = experiment: in vivo mouse model of human AML (tumour growth); details: oral administration, procedure of Example 236, FIG. 1
MV4-11 cells = experiment: MV4-11 cellular proliferative assay, Assay Format A (CellTiter-Glo, 120 hours); assay type: cell-based; details: Homo sapiens
How it was run: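 Over 120 h, MV4-11 cells seeded at 50 cells/well in IMDM/10% FBS were exposed to compound (10 semi-log dilutions, 30 μM top). Viability was read by CellTiter-Glo luminescence. Signals were normalised to DMSO and reference-compound wells, and AC50 came from a Hill fit.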

MLLT1 = molecular target: T1, MLLT1 (Mus musculus, UniProt F6UGX7); experiment: MLLT1 degradation assay in NIH/3T3 cells (JESS), dose response, 5 h; assay type: cell-based
T1 construct: host or cells: NIH/3T3
T1 sequence (F6UGX7 1-547): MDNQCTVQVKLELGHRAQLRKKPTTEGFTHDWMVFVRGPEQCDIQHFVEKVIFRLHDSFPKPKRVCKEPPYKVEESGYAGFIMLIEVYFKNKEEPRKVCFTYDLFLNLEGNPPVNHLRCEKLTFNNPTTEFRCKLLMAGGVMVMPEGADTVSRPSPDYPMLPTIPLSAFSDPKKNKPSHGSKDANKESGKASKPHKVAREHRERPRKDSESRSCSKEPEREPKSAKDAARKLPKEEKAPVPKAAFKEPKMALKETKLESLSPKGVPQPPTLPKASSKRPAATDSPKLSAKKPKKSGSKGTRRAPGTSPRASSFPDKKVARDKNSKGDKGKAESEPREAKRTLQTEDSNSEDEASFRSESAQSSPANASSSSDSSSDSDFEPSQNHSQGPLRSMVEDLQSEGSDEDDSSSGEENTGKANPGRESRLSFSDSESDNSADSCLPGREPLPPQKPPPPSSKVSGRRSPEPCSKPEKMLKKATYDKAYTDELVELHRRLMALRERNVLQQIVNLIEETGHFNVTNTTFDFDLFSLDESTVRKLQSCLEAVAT
Protocol: MLLT1 degradation efficacy of compounds was tested in an automated chemiluminescent detection system (JESS, Cat #004-650). NIH/3T3 (#CRL-1658, ATCC) were seeded at a density of 0.5 million cells/well in a cell culture treated 6-well cell culture plate in 2 mL of complete medium (DMEM+10% FBS+1X Penicillin-Streptomycin) and incubated at 37° C., 5% CO2. The next day, 10 mM DMSO stocks were prepared, and cells were treated with eight concentrations of test compound, starting from 100 nM, 5-fold dilution, at a final DMSO concentration of 0.1% and incubated for 5 h at 37° C., 5% CO2. Post incubation, cells were washed with HBSS and lysed in 70 μL of RIPA buffer supplemented with Protease inhibitors (sc-24948; Santa Cruz). Protein estimation was done using BCA protein assay kit (23228; Pierce). […] Post run, data was analysed using “Compass for SW” software for chemiluminescent detection. […]
MLLT3 degradation efficacy of compounds was tested in an automated chemiluminescent detection system (JESS, Cat #004-650). […] Post run, data was analysed using “Compass for SW” software for chemiluminescent detection. […]

## CN1CCC[C@@H]1c1cc2cnc(NC(=O)c3ccc(CCCC#Cc4cccc5c4CN(C4CCC(=O)NC4=O)C5=O)cc3)cc2[nH]1 (stereo partly drawn) [Example 55, 4-(5-(2-(2,6-dioxopiperidin-3-yl)-1-oxoisoindolin-4-yl)pent-4-yn-1-yl)-N-(2-((R)-1-methylpyrrolidin-2-yl)-1H-pyrrolo[3,2-c]pyridin-6-yl)benzamide]
Human AML
  tumour growth: reduction in tumour growth
MV4-11 cells
  IC50: ≤ 100 nM
MLLT1; NIH3T3, read-out: MLLT1 Dmax in NIH/3T3 cells
  Dmax: 96%
MLLT1; NIH/3T3 cells, 5 h
  DC50: 1.2 nM
